Assay results taken from patent US5348946A, “Heteroanthracycline antitumor analogs” (Biochem Immunosystems, Inc., priority 1991, dated 1994).

Columns and labels:
DMS 273 = assay: in vitro cytotoxicity evaluation, Small Cell Lung Cancer; format: cell-based; conditions: Homo sapiens, 48 h, DMS 273, two days, sulforhodamine B
Experimental: (§1) These assays were carried out at the Developmental Therapeutics Program, Division of Cancer Treatment, National Cancer Institute (Bethesda, Md., USA). The method consists of incubating varying concentrations of the drug with an inoculum of cells for two days.
(§2) It should be noted that the first two parameters (GI50 and TGI) relate to antiproliferation effects while the third one (LC50) indicates true cytotoxicity.

59 tumor cell lines = assay: in vitro cytotoxicity evaluation, whole panel; format: cell-based, human
Experimental: as §1, §2

U251 = assay: in vitro cytotoxicity evaluation, CNS Cancer; format: cell-based; conditions: Homo sapiens, U-251, 48 h, U251, two days, sulforhodamine B
Experimental: as §1, §2

SNB-75 = assay: in vitro cytotoxicity evaluation, CNS Cancer; format: cell-based; conditions: Homo sapiens, 48 h, SNB-75, two days, sulforhodamine B
Experimental: as §1, §2

DMS 114 = assay: in vitro cytotoxicity evaluation, Small Cell Lung Cancer; format: cell-based; conditions: Homo sapiens, 48 h, DMS 114, two days, sulforhodamine B
Experimental: BCH-255 (compound 39) was subjected to an in vitro cytotoxicity evaluation against 59 tumor cell lines to assess its potential as an anticancer drug. These assays were carried out at the Developmental Therapeutics Program, Division of Cancer Treatment, National Cancer Institute (Bethesda, Md., USA). The method consists of incubating varying concentrations of the drug with an inoculum of cells for two days. At the end of the assay, the number of viable cells is estimated with a dye, sulforhodamine B. The protocol is described in M. R. Boyd, "Status of the NCI Preclinical Antitumor Drug Discovery Screen", Principles and Practices of Oncology, 3, pp. 1-12, 1989.
There are three parameters calculated: GI50, the log molar concentration of drug required to inhibit cell growth by 50%; TGI, the log molar concentration of drug required to completely block cell growth; LC50, the log molar concentration of drug required to reduce the original cell number by 50%. It should be noted that the first two parameters (GI50 and TGI) relate to antiproliferation effects while the third one (LC50) indicates true cytotoxicity.

M19-MEL = assay: in vitro cytotoxicity evaluation, Melanoma; format: cell-based; conditions: Homo sapiens, 48 h, two days, sulforhodamine B
Experimental: as §1, §2

UACC-62 = assay: in vitro cytotoxicity evaluation, Melanoma; format: cell-based; conditions: Homo sapiens, 48 h, UACC-62, two days, sulforhodamine B
Experimental: as §1, §2

LOX IMVI = assay: in vitro cytotoxicity evaluation, Melanoma; format: cell-based; conditions: Homo sapiens, 48 h, two days, sulforhodamine B
Experimental: as §1, §2

SK-MEL-2 = assay: in vitro cytotoxicity evaluation, Melanoma; format: cell-based; conditions: Homo sapiens, 48 h, SK-MEL-2, two days, sulforhodamine B
Experimental: as §1, §2

MALME-3M = assay: in vitro cytotoxicity evaluation, Melanoma; format: cell-based; conditions: Homo sapiens, 48 h, two days, sulforhodamine B
Experimental: as §1, §2

UACC-257 = assay: in vitro cytotoxicity evaluation, Melanoma; format: cell-based; conditions: Homo sapiens, 48 h, UACC-257, two days, sulforhodamine B
Experimental: as §1, §2

SK-MEL-28 = assay: in vitro cytotoxicity evaluation, Melanoma; format: cell-based; conditions: Homo sapiens, 48 h, SK-MEL-28, two days, sulforhodamine B
Experimental: as §1, §2

M14 = assay: in vitro cytotoxicity evaluation, Melanoma; format: cell-based; conditions: Homo sapiens, 48 h, M14, two days, sulforhodamine B
Experimental: as §1, §2

SK-MEL-5 = assay: in vitro cytotoxicity evaluation, Melanoma; format: cell-based; conditions: Homo sapiens, 48 h, SK-MEL-5, two days, sulforhodamine B
Experimental: as §1, §2

786-O = assay: in vitro cytotoxicity evaluation, Renal Cancer; format: cell-based; conditions: Homo sapiens, 786-0, 48 h, two days, sulforhodamine B
Experimental: as §1, §2

SN12C = assay: in vitro cytotoxicity evaluation, Renal Cancer; format: cell-based; conditions: Homo sapiens, 48 h, two days, sulforhodamine B
Experimental: as §1, §2

RXF-631 = assay: in vitro cytotoxicity evaluation, Renal Cancer; format: cell-based; conditions: Homo sapiens, 48 h, RXF-631, two days, sulforhodamine B
Experimental: as §1, §2

CAKI-1 = assay: in vitro cytotoxicity evaluation, Renal Cancer; format: cell-based; conditions: Homo sapiens, 48 h, CAKI-1, two days, sulforhodamine B
Experimental: as §1, §2

TK-10 = assay: in vitro cytotoxicity evaluation, Renal Cancer; format: cell-based; conditions: Homo sapiens, 48 h, TK-10, two days, sulforhodamine B
Experimental: as §1, §2

[1] = read-out: LOG10 G150 (GI50) (converted)
[2] = read-out: Log10 LC50 (converted)
[3] = read-out: Log10 TGI (converted)

Molecule `COc1c2c(c(OC)c3c(=O)c4ccccc4sc13)CS(=O)(=O)[C@@H]2O[C@H]1C[C@H](N)[C@H](O)[C@H](C)O1` [BCH-255, (1S ) 1-daunosamine-4-11-dimethoxy-5-oxo-5-H-1,3-dihydrothioxantheno [2,3-c] thiophene-2,2-dioxide] has a GI50 (DMS 273; [1]) of 18.2 µM, a CC50 (DMS 273; [2]) of 70.8 µM and an IC (total growth inhibition (TGI)) (DMS 273; [3]) of 35.5 µM. The “DELTA of Log10 TGI” value (59 tumor cell lines; DELTA over the panel) was 0.13, the CC50 (59 tumor cell lines; Homo sapiens, 48 h, MG MID over the panel, read-out: MG MID of Log10 LC50 (converted)) was 75.9 µM and the IC (TGI) (59 tumor cell lines; Homo sapiens, 48 h, MG MID over the panel, read-out: MG MID of Log10 TGI (converted)) was 40.7 µM. For the same molecule, the GI50 (59 tumor cell lines; Homo sapiens, MG MID over the panel, read-out: MG MID of LOG10 G150 (GI50) (converted)) was 20 µM, the “RANGE of Log10 TGI” value (59 tumor cell lines; RANGE over the panel) was 0.52 and the cytotoxicity (59 tumor cell lines; solid tumors and leukemia cell lines) was “all the cell lines of solid tumors and leukemia showed cytotoxcity to the drug”. For the same molecule, the “spectrum of antitumor activity” value (59 tumor cell lines; tumor cell line panel) was “wide spectrum of antitumor activity”, the GI50 (U251; [1]) was 17.4 µM and the CC50 (U251; [2]) was 56.2 µM. For the same molecule, the IC (total growth inhibition (TGI)) (U251; [3]) was 31.6 µM, the GI50 (SNB-75; [1]) was 15.8 µM and the CC50 (SNB-75; [2]) was 57.5 µM. For the same molecule, the IC (total growth inhibition (TGI)) (SNB-75; [3]) was 30.2 µM, the GI50 (DMS 114; [1]) was 17.8 µM and the IC (total growth inhibition (TGI)) (DMS 114; [3]) was 37.2 µM. The GI50 (M19-MEL; [1]) was 18.2 µM, the CC50 (M19-MEL; [2]) was 67.6 µM and the IC (total growth inhibition (TGI)) (M19-MEL; [3]) was 34.7 µM. It also gave a GI50 (UACC-62; [1]) of 19.1 µM, a CC50 (UACC-62; [2]) of 74.1 µM and an IC (total growth inhibition (TGI)) (UACC-62; [3]) of 37.2 µM. For the same molecule, the GI50 (LOX IMVI; [1]) was 17.8 µM, the CC50 (LOX IMVI; [2]) was 81.3 µM and the IC (total growth inhibition (TGI)) (LOX IMVI; [3]) was 38 µM. For the same molecule, the GI50 (SK-MEL-2; [1]) was 19.1 µM, the CC50 (SK-MEL-2; [2]) was 70.8 µM and the IC (total growth inhibition (TGI)) (SK-MEL-2; [3]) was 36.3 µM. For the same molecule, the GI50 (MALME-3M; [1]) was 20 µM, the CC50 (MALME-3M; [2]) was 67.6 µM and the IC (total growth inhibition (TGI)) (MALME-3M; [3]) was 36.3 µM. The GI50 (UACC-257; [1]) was 22.4 µM, the CC50 (UACC-257; [2]) was 85.1 µM and the IC (total growth inhibition (TGI)) (UACC-257; read-out: Log10 TGI) was 43.7 µM. The GI50 (SK-MEL-28; [1]) was 18.2 µM, the CC50 (SK-MEL-28; [2]) was 67.6 µM and the IC (total growth inhibition (TGI)) (SK-MEL-28; [3]) was 34.7 µM. It also gave a GI50 (M14; [1]) of 18.2 µM, a CC50 (M14; [2]) of 60.3 µM and an IC (total growth inhibition (TGI)) (M14; [3]) of 33.1 µM. For the same molecule, the GI50 (SK-MEL-5; [1]) was 18.2 µM, the CC50 (SK-MEL-5; [2]) was 57.5 µM and the IC (total growth inhibition (TGI)) (SK-MEL-5; [3]) was 32.4 µM. The GI50 (786-O; [1]) was 16.2 µM, the CC50 (786-O; [2]) was 58.9 µM and the IC (total growth inhibition (TGI)) (786-O; [3]) was 30.9 µM. For the same molecule, the GI50 (SN12C; [1]) was 18.2 µM, the CC50 (SN12C; [2]) was 72.4 µM and the IC (total growth inhibition (TGI)) (SN12C; [3]) was 36.3 µM. For the same molecule, the GI50 (RXF-631; [1]) was 20 µM, the CC50 (RXF-631; [2]) was > 100 µM and the IC (total growth inhibition (TGI)) (RXF-631; [3]) was 46.8 µM. The GI50 (CAKI-1; [1]) was 19.5 µM, the CC50 (CAKI-1; [2]) was 74.1 µM and the IC (total growth inhibition (TGI)) (CAKI-1; [3]) was 38 µM. The GI50 (TK-10; [1]) was 25.7 µM, the CC50 (TK-10; [2]) was 77.6 µM and the IC (total growth inhibition (TGI)) (TK-10; [3]) was 44.7 µM.
